# From ChEMBL document CHEMBL5252652, “Benzo[b]naphtho[2,1-d]furans and 2-Phenylnaphthalenes from Streblus usambarensis” (J Nat Prod, 2023)
# Tests used:
# [1] = system: MCF7; test: Cytotoxicity against human MCF7 cells assessed as reduction in cell viability incubated for 24 hrs by PrestoBlue reagent based fluorescence assay; assay type: toxicity; details: mcf7, 24 h
# [2] = system: Bacillus subtilis; test: Antibacterial activity against Bacillus subtilis assessed as inhibition of bacterial growth incubated for 4 to 20 hrs by resazurin based microplate reader analysis; assay type: functional; details: time 4-20 hrs
MIC [2],Compound,Activity [1]
–,COc1c(O)cc2c(oc3c4cc(O)ccc4ccc23)c1CC=C(C)C,Non-Toxic
9 µM,CC1(C)C=Cc2c(-c3ccc4ccc(O)cc4c3)ccc(O)c2O1,Non-Toxic
–,COc1ccc2ccc3c4cc(O)c(OC)c(CC=C(C)C)c4oc3c2c1,Non-Toxic
